According to PubChem BioAssay AID192 (DTP/NCI, 2004):
“And” between values parts separate entries of the source, which are not always exact repeats. Equal values may be shown once. Toxic doses and inconclusive results are not listed.

System: BDF1 mice, B16 melanoma ip, median survival T/C
Test: NCI In Vivo Anticancer Drug Screen. Data for tumor model B16 Melanoma (intraperitoneal) in B6D2F1 (BDF1) mice
Conditions: endpoint: median survival time, higher = longer survival
Procedure, shortened: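 Mice with transplantable tumors; drug vs vehicle groups; endpoint survival or tumor size; value = T/C.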

[1] = dose: 100.0 mg/kg/injection, schedule: Q01DX009 (ip), vehicle: Klucel (hydroxypropylcellulose) (HPC)
[2] = dose: 200.0 mg/kg/injection, schedule: Q01DX009 (ip), vehicle: Klucel (hydroxypropylcellulose) (HPC)
[3] = dose: 400.0 mg/kg/injection, schedule: Q01DX009 (ip), vehicle: Klucel (hydroxypropylcellulose) (HPC)
[4] = dose: 100.0 mg/kg/injection, schedule: Q04DX003 (ip), vehicle: Klucel (hydroxypropylcellulose) (HPC)
[5] = dose: 200.0 mg/kg/injection, schedule: Q04DX003 (ip), vehicle: Klucel (hydroxypropylcellulose) (HPC)
[6] = dose: 400.0 mg/kg/injection, schedule: Q04DX003 (ip), vehicle: Klucel (hydroxypropylcellulose) (HPC)
[7] = dose: 6.25 mg/kg/injection, schedule: Q01DX009 (ip), vehicle: saline with Tween-80
[8] = dose: 100.0 mg/kg/injection, schedule: Q01DX009 (ip), vehicle: saline with Tween-80

c1ccc(CNC(Cc2ccccc2)c2ccc(OCc3ccccc3)cc2)cc1 (stereo not given)
T/C [1]: 106 % of control | T/C [2]: 96 % of control | T/C [3]: 93 % of control

O=C(CN1CCCCC1)Nc1cccc(C(F)(F)F)c1
T/C [1]: 87 % of control | T/C [2]: 89 % of control

CCOc1ccccc1NC(=O)c1cc2ccccc2cc1O
T/C (dose: 100.0 mg/kg/injection, schedule: Q01DX009 (ip), vehicle: saline): 115 % of control | T/C (dose: 200.0 mg/kg/injection, schedule: Q01DX009 (ip), vehicle: saline): 118 % of control | T/C (dose: 400.0 mg/kg/injection, schedule: Q01DX009 (ip), vehicle: saline): 121 % of control

CCOC1=C(Br)C=CN(S(=O)(=O)c2ccc(C)cc2)c2ccc(OC)cc21
T/C [4]: 96 % of control | T/C [5]: 90 % of control | T/C [6]: 91 % of control

N#C[CH2][Sn]([I])([c]1ccccc1)[c]1ccccc1
T/C (dose: 3.12 mg/kg/injection, schedule: Q01DX009 (ip), vehicle: saline with Tween-80): 93 % of control | T/C [7]: 87 % of control | T/C (dose: 12.5 mg/kg/injection, schedule: Q01DX009 (ip), vehicle: saline with Tween-80): 86 % of control

CNc1ccc(S(=O)(=O)O)cc1
T/C [4]: 100 % of control | T/C [5]: 100 % of control | T/C [6]: 86 % of control

Cc1ccccc1NC(=O)Nc1cccc(C)c1C
T/C (dose: 50.0 mg/kg/injection, schedule: Q04DX003 (ip), vehicle: Klucel (hydroxypropylcellulose) (HPC)): 90 % of control | T/C [4]: 96 % of control | T/C [5]: 93 % of control

CC(=O)CC(=O)NC1CCCC1
T/C [1]: 96 % of control | T/C [2]: 96 % of control | T/C [3]: 107 % of control

CCCC1CC[N-]CC1.CCCC1CC[N-]CC1.CCCC1CC[N-]CC1.CCCC1CC[N-]CC1.[Cl][Rh][Cl]
T/C (dose: 0.37 mg/kg/injection, schedule: Q01DX009 (ip), vehicle: Klucel (hydroxypropylcellulose) (HPC)): 104 % of control | T/C (dose: 0.75 mg/kg/injection, schedule: Q01DX009 (ip), vehicle: Klucel (hydroxypropylcellulose) (HPC)): 102 % of control | T/C (dose: 1.5 mg/kg/injection, schedule: Q01DX009 (ip), vehicle: Klucel (hydroxypropylcellulose) (HPC)): 100 % of control | T/C (dose: 1.56 mg/kg/injection, schedule: Q01DX009 (ip), vehicle: saline with Tween-80): 109 % of control | T/C (dose: 3.13 mg/kg/injection, schedule: Q01DX009 (ip), vehicle: saline with Tween-80): 116 % of control | T/C [7]: 98 % of control

O=C1CCC(=O)N1CO
T/C (dose: 37.5 mg/kg/injection, schedule: Q01DX009 (ip), vehicle: saline): 107 % of control and 112 % of control | T/C (dose: 75.0 mg/kg/injection, schedule: Q01DX009 (ip), vehicle: saline): 104 % of control and 107 % of control | T/C (dose: 150.0 mg/kg/injection, schedule: Q01DX009 (ip), vehicle: saline): 109 % of control

CCOC(=O)c1ccc(NC(=O)Nc2nc(C)cs2)cc1
T/C (dose: 25.0 mg/kg/injection, schedule: Q01DX009 (ip), vehicle: distilled water + Tween-80): 111 % of control | T/C (dose: 200.0 mg/kg/injection, schedule: Q01DX009 (ip), vehicle: distilled water + Tween-80): 120 % of control

Cc1ccc(NC(=O)c2ccccc2)cc1[As]=[As]c1cc(NC(=O)c2ccccc2)ccc1C (stereo not given)
T/C (dose: 0.04 mg/kg/injection, schedule: Q01DX009 (ip), vehicle: saline with Tween-80): 107 % of control | T/C (dose: 0.08 mg/kg/injection, schedule: Q01DX009 (ip), vehicle: saline with Tween-80): 102 % of control | T/C (dose: 0.08 mg/kg/injection, schedule: Q04DX003 (ip), vehicle: saline): 101 % of control | T/C (dose: 0.15 mg/kg/injection, schedule: Q01DX009 (ip), vehicle: saline with Tween-80): 104 % of control | T/C (dose: 0.15 mg/kg/injection, schedule: Q04DX003 (ip), vehicle: saline): 91 % of control | T/C (dose: 0.16 mg/kg/injection, schedule: Q04DX003 (ip), vehicle: Klucel (hydroxypropylcellulose) (HPC)): 101 % of control | T/C (dose: 0.3 mg/kg/injection, schedule: Q01DX009 (ip), vehicle: saline with Tween-80): 100 % of control | T/C (dose: 0.3 mg/kg/injection, schedule: Q04DX003 (ip), vehicle: saline): 92 % of control | T/C (dose: 0.31 mg/kg/injection, schedule: Q04DX003 (ip), vehicle: Klucel (hydroxypropylcellulose) (HPC)): 98 % of control | T/C (dose: 0.6 mg/kg/injection, schedule: Q04DX003 (ip), vehicle: saline): 91 % of control | T/C (dose: 0.63 mg/kg/injection, schedule: Q04DX003 (ip), vehicle: saline with Tween-80): 89 % of control | T/C (dose: 2.5 mg/kg/injection, schedule: Q04DX003 (ip), vehicle: saline with Tween-80): 161 % of control | T/C (dose: 5.0 mg/kg/injection, schedule: Q04DX003 (ip), vehicle: saline with Tween-80): 105 % of control

CC(=O)SCC(C)CCl (stereo not given)
T/C (dose: 50.0 mg/kg/injection, schedule: Q01DX009 (ip), vehicle: saline with Tween-80): 100 % of control | T/C [8]: 100 % of control

c1ccc(Cc2ccccc2)cc1
T/C [8]: 89 % of control
